In US12146004B2, “Polymyxin compounds and uses thereof” (priority 2014, dated 2024):
In brackets after ≈: the same amount, converted by molar mass. Where two headings read alike, the source gives them in different places. Numbered stars: 1 amine (or outer) side, 2 acyl side, 3 side chain; on linkers, the order of the positions; unused ones are H or OH. Bridge positions count the residues as written; N and C are the ends. Square brackets hold non-standard residues; d marks the D form. Peptide text beside a SMILES is read from it. * marks the point of attachment. ξ: configuration not given here. X11 = O=C([C@@H](Cc1ccc(-c2ccncc2)cc1)N[*:1])[*:2]; dBip = N[C@H](Cc1ccc(-c2ccccc2)cc1)C(=O)O; Octanoyl(6-Me) = CCC(C)CCCCC(=O)*; X3 = CCCCCCCCN1CCNC[C@H]1C(=O)*; Thr(3ξ) = CC(O)[C@H](N)C(=O)O; Dab = NCC[C@H](N)C(=O)O

Experiments:
Type in all cases: cell-based
HK-2 cells = system: HK-2 cells
From the text: Values are reported relative to Polymyxin B.

Acinetobacter baumannii = system: Acinetobacter baumannii
In short: (§1)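 Strain panels of up to nine per species, with resistant and Polymyxin-tolerant strains included, were used for susceptibility testing; read-out was MIC (μg/mL).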

Klebsiella pneumoniae = system: Klebsiella pneumoniae
In short: as §1

Pseudomonas aeruginosa = system: Pseudomonas aeruginosa
In short: as §1

Escherichia coli = system: Escherichia coli
In short: as §1

| Structure (SMILES) | HK-2 IC50 (HK-2 cells) [µg/mL] | MIC A. baumanii 053 (Acinetobacter baumannii) [µg/mL] | MIC A. baumanii 056 (Acinetobacter baumannii) [µg/mL] | MIC A. baumanii ATCC BAA-747 (Acinetobacter baumannii) [µg/mL] | MIC A. baumanii NCTC 13424 (Acinetobacter baumannii) [µg/mL] | MIC K. pneumoniae 063 (Klebsiella pneumoniae) [µg/mL] | MIC K. pneumoniae 065 (Klebsiella pneumoniae) [µg/mL] | MIC K. pneumoniae ATCC 4352 (Klebsiella pneumoniae) [µg/mL] | MIC K. pneumoniae ATCC 13882 (Klebsiella pneumoniae) [µg/mL] | MIC P. aeruginosa 068 (Pseudomonas aeruginosa) [µg/mL] | MIC P. aeruginosa 070 (Pseudomonas aeruginosa) [µg/mL] | MIC P. aeruginosa ATCC 27853 (Pseudomonas aeruginosa) [µg/mL] | MIC P. aeruginosa CCUG 59347 (Pseudomonas aeruginosa) [µg/mL] | MIC E. coli 058 (Escherichia coli) [µg/mL] | MIC E. coli 061 (Escherichia coli) [µg/mL] | MIC E. coli ATCC 25922 (Escherichia coli) [µg/mL] | MIC E. coli NCTC 9001 (Escherichia coli) [µg/mL] | also measured |
| --- | --- | --- | --- | --- | --- | --- | --- | --- | --- | --- | --- | --- | --- | --- | --- | --- | --- | --- |
| CC(C)C[C@@H]1NC(=O)[C@@H](CC2CCCCC2)NC(=O)[C@H](CCN)NC(=O)[C@@H](NC(=O)[C@H](CN)NC(=O)[C@@H](NC(=O)C(CN)Cc2ccccc2)C(C)O)CCNC(=O)[C@H]([C@@H](C)O)NC(=O)[C@H](CCN)NC(=O)[C@H](CCN)NC1=O (single isomer, unassigned; isomer 2) [Example 34, 3-amino-2-benzylpropanoyl L-Thr-L-Dap-polymyxin [D-cyclohexylalanine]-6 heptapeptide. Isomer 2] | 99 | 32 (≈ 28.7 µM) | 16 (≈ 14.3 µM) | 0.125 (≈ 0.112 µM) | 0.06 (≈ 0.0537 µM) | 32 (≈ 28.7 µM) | 4 (≈ 3.58 µM) | 0.125 (≈ 0.112 µM) | 0.125 (≈ 0.112 µM) | 4 (≈ 3.58 µM) | 4 (≈ 3.58 µM) | 0.25 (≈ 0.224 µM) | 0.25 (≈ 0.224 µM) | 2 (≈ 1.79 µM) | 16 (≈ 14.3 µM) | 0.25 (≈ 0.224 µM) | 0.125 (≈ 0.112 µM) |  |
| CC(C)C[C@@H]1NC(=O)[C@@H](CC2CCCCC2)NC(=O)[C@H](CCN)NC(=O)[C@@H](NC(=O)[C@H](CN)NC(=O)[C@@H](NC(=O)C(CCN)c2ccccc2)C(C)O)CCNC(=O)[C@H]([C@@H](C)O)NC(=O)[C@H](CCN)NC(=O)[C@H](CCN)NC1=O (single isomer, unassigned; isomer 2) [Example 38, 4-amino-2-phenylbutanoyl L-Thr-L-Dap-polymyxin [D-cyclohexylalanine]-6 heptapeptide. isomer 2] | 255 | 32 (≈ 28.7 µM) | 8 (≈ 7.17 µM) | 0.06 (≈ 0.0537 µM) | 0.03 (≈ 0.0269 µM) | 32 (≈ 28.7 µM) | 1 (≈ 0.896 µM) |  | 0.125 (≈ 0.112 µM) | 4 (≈ 3.58 µM) | 4 (≈ 3.58 µM) | 0.25 (≈ 0.224 µM) | 0.25 (≈ 0.224 µM) | 2 (≈ 1.79 µM) | 16 (≈ 14.3 µM) | 0.06 (≈ 0.0537 µM) | 0.06 (≈ 0.0537 µM) |  |
| CCCCC(CCN)C(=O)N[C@H](C(=O)N[C@@H](CN)C(=O)N[C@H]1CCNC(=O)[C@H]([C@@H](C)O)NC(=O)[C@H](CCN)NC(=O)[C@H](CCN)NC(=O)[C@H](CC(C)C)NC(=O)[C@@H](CC2CCCCC2)NC(=O)[C@H](CCN)NC1=O)[C@@H](C)O (single isomer, unassigned; isomer 2) [Example 41, 2-(2-aminoethyl) hexanoyl L-Thr-L-Dap-polymyxin [D-cyclohexylalanine]-6 heptapeptide. Isomer 2] | 206 | >32 | 32 (≈ 29.2 µM) | 0.06 (≈ 0.0547 µM) | 0.06 (≈ 0.0547 µM) | 16 (≈ 14.6 µM) | 1.5 (≈ 1.37 µM) |  | 0.125 (≈ 0.114 µM) | 4 (≈ 3.65 µM) | 4 (≈ 3.65 µM) | 0.5 (≈ 0.456 µM) | 0.5 (≈ 0.456 µM) | 4 (≈ 3.65 µM) | 8 (≈ 7.3 µM) | 0.125 (≈ 0.114 µM) | 0.06 (≈ 0.0547 µM) | cytotoxicity (HK-2 cells): significantly lower cytotoxicity compared with C6 |
| CC(C)C[C@@H]1NC(=O)[C@@H](CC2CCCCC2)NC(=O)[C@H](CCN)NC(=O)[C@@H](NC(=O)[C@H](CCN)NC(=O)[C@@H](NC(=O)CC(CN)Cc2ccccc2)[C@@H](C)O)CCNC(=O)[C@H]([C@@H](C)O)NC(=O)[C@H](CCN)NC(=O)[C@H](CCN)NC1=O (single isomer, unassigned; isomer 2) [Example 67, 4-amino-3-benzylbutanoyl polymyxin [D-cyclohexylalanine]-6 nonapeptide isomer 2] |  |  |  |  |  |  |  |  |  |  |  |  |  |  |  |  |  | HK-2 IC50 (HK-2 cells; HK-2 cells): 60 µg/mL; MIC A. baumanii 053 (Acinetobacter baumannii; strain 053): 64 µg/mL (≈ 55.9 µM); MIC A. baumanii 056 (Acinetobacter baumannii; strain 056): 16 µg/mL (≈ 14 µM); MIC A. baumanii ATCC BAA-747 (Acinetobacter baumannii; strain ATCC BAA-747): 0.25 µg/mL (≈ 0.218 µM); MIC A. baumanii NCTC 13424 (Acinetobacter baumannii; strain NCTC 13424): 0.25 µg/mL (≈ 0.218 µM); MIC K. pneumoniae 063 (Klebsiella pneumoniae; strain 063): 32 µg/mL (≈ 28 µM); MIC K. pneumoniae 065 (Klebsiella pneumoniae; strain 065): 1 µg/mL (≈ 0.874 µM); MIC K. pneumoniae ATCC 13882 (Klebsiella pneumoniae; strain ATCC 13882): 0.25 µg/mL (≈ 0.218 µM); MIC P. aeruginosa 068 (Pseudomonas aeruginosa; strain 068): 8 µg/mL (≈ 6.99 µM); MIC P. aeruginosa 070 (Pseudomonas aeruginosa; strain 070): 16 µg/mL (≈ 14 µM); MIC P. aeruginosa ATCC 27853 (Pseudomonas aeruginosa; strain ATCC 27853): 0.25 µg/mL (≈ 0.218 µM); MIC P. aeruginosa CCUG 59347 (Pseudomonas aeruginosa; strain CCUG 59347): 0.25 µg/mL (≈ 0.218 µM); MIC E. coli 058 (Escherichia coli; strain 058): 4 µg/mL (≈ 3.5 µM); MIC E. coli 061 (Escherichia coli; strain 061): 16 µg/mL (≈ 14 µM); MIC E. coli ATCC 25922 (Escherichia coli; strain ATCC 25922): 0.125 µg/mL (≈ 0.109 µM); MIC E. coli NCTC 9001 (Escherichia coli; strain NCTC 9001): 0.06 µg/mL (≈ 0.0524 µM) |

More lines, main results first:

| HK-2 IC50 (HK-2 cells) [µg/mL] | MIC A. baumanii 053 (Acinetobacter baumannii) [µg/mL] | MIC A. baumanii 056 (Acinetobacter baumannii) [µg/mL] | MIC A. baumanii ATCC BAA-747 (Acinetobacter baumannii) [µg/mL] | MIC A. baumanii NCTC 13424 (Acinetobacter baumannii) [µg/mL] | MIC K. pneumoniae 063 (Klebsiella pneumoniae) [µg/mL] | MIC K. pneumoniae 065 (Klebsiella pneumoniae) [µg/mL] | MIC K. pneumoniae ATCC 4352 (Klebsiella pneumoniae) [µg/mL] | MIC K. pneumoniae ATCC 13882 (Klebsiella pneumoniae) [µg/mL] | MIC P. aeruginosa 068 (Pseudomonas aeruginosa) [µg/mL] | MIC P. aeruginosa 070 (Pseudomonas aeruginosa) [µg/mL] | MIC P. aeruginosa ATCC 27853 (Pseudomonas aeruginosa) [µg/mL] | MIC P. aeruginosa CCUG 59347 (Pseudomonas aeruginosa) [µg/mL] | MIC E. coli 058 (Escherichia coli) [µg/mL] | MIC E. coli 061 (Escherichia coli) [µg/mL] | MIC E. coli ATCC 25922 (Escherichia coli) [µg/mL] | MIC E. coli NCTC 9001 (Escherichia coli) [µg/mL] | Structure (SMILES) | also measured |
| --- | --- | --- | --- | --- | --- | --- | --- | --- | --- | --- | --- | --- | --- | --- | --- | --- | --- | --- |
| 152 | >64 | 64 (≈ 56.6 µM) | 0.5 (≈ 0.442 µM) | 0.25 (≈ 0.221 µM) | 16 (≈ 14.2 µM) | 0.5 (≈ 0.442 µM) | 0.125 (≈ 0.111 µM) | 0.06 (≈ 0.0531 µM) | 1 (≈ 0.885 µM) | 2 (≈ 1.77 µM) | 0.25 (≈ 0.221 µM) | 0.25 (≈ 0.221 µM) | 4 (≈ 3.54 µM) | 16 (≈ 14.2 µM) | 0.25 (≈ 0.221 µM) | 0.06 (≈ 0.0531 µM) | CC(C)C[C@@H]1NC(=O)[C@@H](CC2CCCCC2)NC(=O)[C@H](CCN)NC(=O)[C@@H](NC(=O)[C@H](CN)NC(=O)[C@@H](NC(=O)C(CCN)Cc2ccccc2)C(C)O)CCNC(=O)[C@H]([C@@H](C)O)NC(=O)[C@H](CCN)NC(=O)[C@H](CCN)NC1=O (single isomer, unassigned; isomer 2) [Example 35, 4-amino-2-benzylbutanoyl L-Thr-L-Dap-polymyxin [D-cyclohexylalanine]-6 heptapeptide. Isomer 2] |  |
| 7 | >32 | >32 | 1 (≈ 0.781 µM) |  | >64 |  | 1 (≈ 0.781 µM) |  | 32 (≈ 25 µM) | >32 | 1 (≈ 0.781 µM) |  |  | 32 (≈ 25 µM) | 1 (≈ 0.781 µM) |  | CCC(C)CCCCC(=O)N[C@@H](CCN)C(=O)N[C@H](C(=O)N[C@@H](CCN)C(=O)N[C@H]1CCNC(=O)[C@H]([C@@H](C)O)NC(=O)[C@H](CCN)NC(=O)[C@H](CCN)NC(=O)[C@H](CC(C)C)NC(=O)[C@@H](Cc2ccc(-c3ccncc3)cc2)NC(=O)[C@H](CCN)NC1=O)C(C)O (stereo partly drawn) [Example 1] ({Octanoyl(6-Me)}-[Dab][Thr(3ξ)][Dab][Dab][Dab][X11]L[Dab][Dab]T; lactam 4-C) | MIC K. pneumoniae 062 (Klebsiella pneumoniae): >64 µg/mL; MIC K. pneumoniae 064 (Klebsiella pneumoniae): 32 µg/mL (≈ 25 µM); MIC K. pneumoniae 066 (Klebsiella pneumoniae): 32 µg/mL (≈ 25 µM); MIC K. pneumoniae 067 (Klebsiella pneumoniae): >32 µg/mL; MIC E. coli 060 (Escherichia coli): 8 µg/mL (≈ 6.25 µM) |
| 3 | 8 (≈ 6.33 µM) | 4 (≈ 3.17 µM) | 1 (≈ 0.791 µM) |  | 4 (≈ 3.17 µM) | 1 (≈ 0.791 µM) | 1 (≈ 0.791 µM) |  | 2 (≈ 1.58 µM) | 2 (≈ 1.58 µM) |  |  | 1 (≈ 0.791 µM) | 2 (≈ 1.58 µM) | 1 (≈ 0.791 µM) |  | CCCCCCCCN1CCNC[C@H]1C(=O)N[C@H](C(=O)N[C@@H](CCN)C(=O)N[C@H]1CCNC(=O)[C@H]([C@@H](C)O)NC(=O)[C@H](CCN)NC(=O)[C@H](CCN)NC(=O)[C@H](CC(C)C)NC(=O)[C@@H](Cc2ccc(-c3ccccc3)cc2)NC(=O)[C@H](CCN)NC1=O)C(C)O (stereo partly drawn) [Example 6] (X3-[Thr(3ξ)][Dab][Dab][Dab][dBip]L[Dab][Dab]T; lactam 3-C) | MIC K. pneumoniae 062 (Klebsiella pneumoniae): 4 µg/mL (≈ 3.17 µM); MIC K. pneumoniae 064 (Klebsiella pneumoniae): 2 µg/mL (≈ 1.58 µM); MIC K. pneumoniae 066 (Klebsiella pneumoniae): 0.5 µg/mL (≈ 0.396 µM); MIC K. pneumoniae 067 (Klebsiella pneumoniae): 4 µg/mL (≈ 3.17 µM); MIC E. coli 059 (Escherichia coli): 0.5 µg/mL (≈ 0.396 µM); MIC E. coli 060 (Escherichia coli): 1 µg/mL (≈ 0.791 µM) |
